Data: US20030176390A1, “Methods of treating insulin resistance syndrome and diabetes” (priority 2001, published 2003)
Like-named read-outs stand apart in the source and are kept apart here.

Columns and labels:
[1] = system: rat adipocytes; assay: In vitro lipolysis assay (antilipolytic activity in rat adipocytes); assay type: cell-based; conditions: norepinephrine-stimulated lipolysis, glycerol assayed, 60 min, read-out: Lipo ec50
Method: Determination of Antilipolytic Activity in Rat Adipocytes
Isolation of Adipocytes from Epididymal Fat Pads
Adipose tissue is removed from anesthetized rats and rinsed twice in incubation medium (2.09 g sodium bicarbonate and 0.04 g EDTA, disodium salt, in 1 L Krebs buffer). Each rat (300-350 g) yields approximately 4 mL of adipose tissue. The adipose tissue (35 mL) is cut into small pieces with scissors and washed with incubation medium (50 mL). The mixture is poured into the barrel of a 50 mL syringe to which is attached a short piece of clamped tubing instead of a needle. The aqueous phase is allowed to drain. A second wash with incubation medium is passed through the syringe. The tissue is added to 50 mL of collagenase solution (collagenase (90 mg), bovine serum albumin (BSA) (500 mg), and 0.1 M calcium chloride solution (1 mL), in incubation medium (50 mL)) in a 1 L bottle. The mixture is shaken in an environmental at 37° C. for about 60 minutes under an atmosphere of 95% oxygen/5% carbon dioxide to effect digestion of the tissue. The dispersed cells are poured through 2 layers of cheese cloth into a 100 mL plastic beaker. The undigested clumps in the cloth are rinsed once with incubation medium (20 mL). The cells in the beaker are centrifuged in 2 plastic tubes for 30 seconds at room temperature at 300 rpm. The aqueous phase is aspirated from beneath the loosely packed layer of floating fat cells and discarded. The adipocytes are gently poured into a 250 mL plastic beaker containing 100 mL of rinse solution (1 g BSA per 100 mL incubation medium). After gentle stirring the centrifugation step is repeated. Another wash with rinse solution follows. The cells are pooled and their volume is estimated with a graduated cylinder. The adipocytes are diluted in twice their volume of assay buffer (incubation medium (120 mL), BSA (1.2 g), pyruvic acid (13 mg)).
The assay is performed in 20 mL plastic scintillation vials and the total assay volume is 4.2 mL. Assay buffer (2.5 mL), diluted adipocytes (1.5 mL), and a solution of the compound to be tested (12.3 μL) adenosine agonist (12.3 μl; varying concentration) is incubated in the environmental shaker for 15 minutes, then the reaction is started with norepinephrine solution (41.2 μL) (10 nM, in a carrier solution containing water (100 mL), BSA (4 mg), and 0.1 M EDTA (20 μL))and adenosine deaminase (1 μg/mL, 41.2 μl). After sixty minutes in the shaker the reaction is terminated by putting the vials on ice. […] The hard lipid layer is removed by aspiration and the aqueous layer is assayed for glycerol (400 μl of sample). The positive control is done in the absence of any adenosine agonist, substituting water in place of the solution to be tested.

[2] = Rattus norvegicus, Adipocyte, 1 h

| Compound | EC50 [1, 2] [nM] | melting point | EC50 [1] [nM] |
| --- | --- | --- | --- |
| OC[C@H]1O[C@@H](n2cnc3c(NC4CCN(c5ccc(Cl)nn5)C4)ncnc32)[C@H](O)[C@@H]1O (stereo partly drawn) [Example 22, (2R,3R,4S,5R)-5-hydroxymethyl-2-[6-[1-(6-chloropyridazin-3-yl)pyrrolidin-3-ylamino]-purin-9-yl]-tetrahydrofuran-3,4-diol] | 3.07 | 130 °C (dec.) |  |
| COC[C@H]1C[C@@H](n2cnc3c(N[C@H]4CCN(c5ccc(Br)cn5)C4)ncnc32)[C@H](O)[C@@H]1O [Example 52, (1R,2S,3R,5R)-3-[6-[1-(5-bromopyridin-2-yl)pyrrolidin-3(S)-ylamino]-purin-9-yl]-5-methoxymethylcyclopentane-1,2-diol] | 17 | 110 to 111 °C |  |
| OC[C@H]1C[C@@H](n2cnc3c(N[C@H]4CCN(c5ccc(C(F)(F)F)cc5)C4)ncnc32)[C@H](O)[C@@H]1O [Example 5, (1R,2S,3R,5R)-3-[6-[1-(4-trifluoromethylphenyl)-pyrrolidin-3(S)-ylamino]-purin-9-yl]-5-hydroxymethylcyclopentane-1,2-diol] | 2 | 111 to 114 °C |  |
| OC[C@H]1C[C@@H](n2cnc3c(N[C@H]4CCN(c5ccccc5)C4)ncnc32)[C@H](O)[C@@H]1O [Example 39, (1R,2S,3R,5R)-5-hydroxymethyl-3-[6-[1-(phenyl)-pyrrolidin-3(S)-ylamino]-purin-9-yl]cyclopentane-1,2-diol] | 17.6 | 97 to 99 °C |  |
| COC[C@H]1C[C@@H](n2cnc3c(N[C@H]4CCN(c5ccc(Cl)cc5)C4)ncnc32)[C@H](O)[C@@H]1O [Example 55, (1R,2S,3R,5R)-3-[6-[1-(4-chlorophenyl)-pyrrolidin-3(S)-ylamino]-purin-9-yl]-5-methoxymethylcyclopentane-1,2-diol] | 3.3 | 122 to 125 °C |  |
| COC[C@H]1C[C@@H](n2cnc3c(N[C@H]4CCN(c5cccc(Cl)c5)C4)ncnc32)[C@H](O)[C@@H]1O [Example 56, (1R,2S,3R,5R)-3-[6-[1-(3-chlorophenyl)-pyrrolidin-3(S)-ylamino]-purin-9-yl]-5-methoxymethylcyclopentane-1,2-diol] | 2.4 | 127 to 130 °C |  |
| OC[C@H]1C[C@@H](n2cnc3c(N[C@H]4CCN(c5nccc6ccccc56)C4)ncnc32)[C@H](O)[C@@H]1O [Example 41, (1R,2S,3R,5R)-5-hydroxymethyl-3-[6-[1-(isoquinolin-1-yl)pyrrolidin-3(S)-ylamino]-purin-9-yl]cyclopentane-1,2-diol] | 182 | 119 to 122 °C |  |
| COc1cc(N2CC[C@H](Nc3ncnc4c3ncn4[C@@H]3O[C@H](CO)[C@@H](O)[C@H]3O)C2)ncn1 [Example 20, (2R,3R,4S,5R)-5-hydroxymethyl-2-[6-[1-(6-methoxypyrimidin-4-yl)pyrrolidin-3(S)-ylamino]-purin-9-yl]tetrahydrofuran-3,4-diol] | 1.37 | 251 to 253 °C |  |
| OC[C@H]1C[C@@H](n2cnc3c(N[C@H]4CCN(c5cccc(Cl)c5)C4)ncnc32)[C@H](O)[C@@H]1O [Example 57, (1R,2S,3R,5R)-3-[6-[1-(3-chlorophenyl)-pyrrolidin-3(S)-ylamino]-purin-9-yl]-5-hydroxymethylcyclopentane-1,2-diol] | 63.5 | 131 to 133 °C |  |
| COC[C@H]1C[C@@H](n2cnc3c(N[C@H]4CCN(c5ccc(C(F)(F)F)cc5)C4)ncnc32)[C@H](O)[C@@H]1O [Example 54, (1R,2S,3R,5R)-5-methoxymethyl-3-[6-[1-(4-trifluoromethylphenyl)pyrrolidin-3(S)-ylamino]-purin-9-yl]cyclopentane-1,2-diol] | 27.8 | 128 °C |  |
| O=[N+]([O-])c1ccc(N2CCC(Nc3ncnc4c3ncn4[C@@H]3C[C@H](CO)[C@@H](O)[C@H]3O)C2)cc1 (stereo partly drawn) [Example 7, (1R,2S,3R,5R)-5-hydroxymethyl-3-[6-[1-(4-nitrophenyl)pyrrolidin-3-ylamino]-purin-9-yl]cyclopentane-1,2-diol] | 2.82 |  |  |
| COC[C@H]1C[C@@H](n2cnc3c(N[C@H]4CCN(c5ncc(C(F)(F)F)cc5Cl)C4)ncnc32)[C@H](O)[C@@H]1O [Example 44, (1R,2S,3R,5R)-3-[6-[1-(3-chloro-5-trifluoromethylpyridin-2-yl)pyrrolidin-3(S)-ylamino]-purin-9-yl]-5-methoxymethylcyclopentane-1,2-diol] | 226 | 140 to 143 °C |  |
| CC(C)NC(=O)[C@H]1C[C@@H](n2cnc3c(N[C@H]4CCN(c5cc(C(F)(F)F)ccn5)C4)ncnc32)[C@H](O)[C@@H]1O [Example 2, (1S,2R,3S,4R)-2,3-dihydroxy-4-[6-[1-(4-trifluormethylpyridin-2-yl)pyrrolidin-3(S)-ylamino]purin-9-yl]cyclopentanecarboxylic acid isopropylamide] |  |  | 10.9 |
| COC[C@H]1C[C@@H](n2cnc3c(N[C@H]4CCN(c5ccc(Cl)cn5)C4)ncnc32)[C@H](O)[C@@H]1O [Example 53, (1R,2S,3R,5R)-3-[6-[1-(5-chlorpyridin-2-yl)pyrrolidin-3(S)-ylamino]-purin-9-yl]-5-methoxymethylcyclopentane-1,2-diol] |  |  | 18.6 |
| COC[C@H]1C[C@@H](n2cnc3c(N[C@H]4CCN(c5cc(Cl)ncn5)C4)ncnc32)[C@H](O)[C@@H]1O [Example 46, (1R,2S,3R,5R)-3-[6-[1-(6-chloropyrimidin-4-yl)pyrrolidin-3(S)-ylamino]-purin-9-yl]-5-methoxymethylcyclopentane-1,2-diol] | 92.5 |  |  |
| OC[C@H]1C[C@@H](n2cnc3c(N[C@H]4CCN(c5ccc6cc(Br)ccc6n5)C4)ncnc32)[C@H](O)[C@@H]1O [Example 42, (1R,2S,3R,5R)-3-[6-[1-(6-bromoquinolin-2-yl)pyrrolidin-3(S)-ylamino]-purin-9-yl]-5-hydroxymethylcyclopentane-1,2-diol] | 30 |  |  |
| OC[C@H]1C[C@@H](n2cnc3c(N[C@H]4CCN(c5cc(C(F)(F)F)c(C(F)(F)F)cn5)C4)ncnc32)[C@H](O)[C@@H]1O [Example 38, (1R,2S,3R,5R)-3-[6-[1-(4,5-bistrifluorpyridin-2-yl)pyrrolidin-3(S)-ylamino]-purin-9-yl]-5-hydroxymethylcyclopentane-1,2-diol] |  |  | 114 |
| OC[C@H]1O[C@@H](n2cnc3c(N[C@H]4CCN(c5cc(Cl)ncn5)C4)ncnc32)[C@H](O)[C@@H]1O [Example 21, (2R,3R,4S,5R)-5-hydroxymethyl-2-[6-[1-(6-chloropyrimidin-4-yl)pyrrolidin-3(S)-ylamino]-purin-9-yl]-tetrahydrofuran-3,4-diol] | 2.43 |  |  |
| CC(C)OC[C@H]1C[C@@H](n2cnc3c(N[C@H]4CCN(c5cc(C(F)(F)F)ccn5)C4)ncnc32)[C@H](O)[C@@H]1O [Example 50, (1R,2S,3R,5R)-5-isopropoxymethyl-3-[6-[1-(4-trifluoromethylpyridin2-yl)pyrrolidin-3(S)-ylamino]-purin-9-yl]cyclopentane-1,2-diol] | 365 |  |  |
| O=[N+]([O-])c1ccc(N2CC[C@H](Nc3ncnc4c3ncn4[C@@H]3C[C@H](CO)[C@@H](O)[C@H]3O)C2)cc1 [Example 37, (1R,2S,3R,5R)-5-hydroxymethyl-3-[6-[1-(4-nitrophenyl)-pyrrolidin-3(S)-ylamino]-purin-9-yl]cyclopentane-1,2-diol] | 2.8 |  |  |
